From patent US20200399238A1, “THERAPEUTIC AURONES” (MIDDLE TENNESSEE STATE UNIVERSITY, priority 2016, published 2020)
Read-outs that look alike come from different tables or passages of the source.

How the values were obtained:
[1] = tested on: Trypanosoma brucei brucei 427 cells; assay: T. brucei culture and assay (PrestoBlue); type: cell-based
[2] = tested on: Trypanosoma cruzi Tulahuen cells expressing beta-galactosidase; assay: T. cruzi intracellular assay (beta-galactosidase, L6 host cells); conditions: for IC50: Trypanosoma cruzi, TULAHUEN; for Selectivity L6/Tc-I: Table 3B; for Selectivity L6/Tc-I / Selectivity L6/TC-I: estimated from highest L6 dose tested where no L6 IC50; for Selectivity L6/TC-I: Table 3A
Method: Trypanosoma cruzi Tulahuen cells expressing beta-galactosidase (Buckner et al., Antimicrob. Agents Chemother. 40 (1996) 2592-2597) were cultured using the L6 cell line as a host cell. Adherent L6 cultures were infected with freshly burst T. cruzi trypomastigotes. Approximately 4-6 days later freshly burst trypomastigotes were collected and used to maintain cultures For assays, trypomastigotes were centrifuged to a loose pellet and incubated for 3 hours to allow the trypomastigote forms to swim out of the pellet. Cells were adjusted for addition to intracellular or extracellular assays. […] For intracellular assays, cells were added to adherent L6 cells using an infection ratio of 1:1 and immediately treated with compounds. At 96 hours incubations, a solution containing chlorophenol-red-B-D-beta-galactopyranosidase (Sigma) and a lysis agent were added. After an additional 2 hour incubation, a spectrophotometer was used to quantify the resulting color change (or lack thereof) which was used to calculate inhibition.
The percentage of cell inhibition was calculated using the formula: Percent Inhibition=1−((Treated Sample value−Medium only value)/(Untreated value−Medium only value))×100. Results are expressed as the mean of two or more independent trials.

[3] = tested on: Leishmania amazonensis promastigotes expressing beta-lactamase; assay: microbe, parasite or virus in culture; type: cell-based; conditions: for IC50: Leishmania amazonensis, read-out: IC50 L. amaz.
[4] = tested on: rat skeletal muscle cell line, L6; assay: cells; type: cell-based
[5] = tested on: C. albicans (ATCC strain 90028); assay: Antifungal microdilution broth assay (PrestoBlue), C. albicans; type: cell-based, Candida albicans; conditions: Candida albicans, ATCC90028, Table 4B; C. albicans; 100 μM; value ± spread; read-out: Percent Inhibition (at 100 μM)
Method: Sigma-Aldrich) was used as the base medium for testing. […] solution of morpholinepropanesulfonic acid (MOPS; Sigma-Aldrich) was added to the RPMI to a final concentration of 0.165 M for buffering (RPMI-MOPS). This medium was adjusted to a pH of 7.0 with 10 M NaOH and filter sterilized. C. albicans (ATCC strain 90028), C. [NT] strain 66032), and C. tropicalis (ATCC strain 750) were cultured on potato dextrose agar (Sigma-Aldrich) plates, and incubated at 35° C. for 24 hours. For antifungal testing, overnight colonies were adjusted to 1.5×10^3 cells/mL, hereafter referred to as the test inoculum. PrestoBlue® (Life Technologies, Invitrogen, Carlsbad, Calif.), a resazurin-based cell viability reagent that, in metabolically active cells, is reduced from blue, non-fluorescent resazurin, to red, fluorescent resorufin, was used to assess inhibition of yeast growth by the aurones. […] Following addition of aurone, plates were then incubated for 24 hours at 35° C. PrestoBlue was added to a final concentration of 10% in each well and fluorescence read at 560 nm excitation and 590 nm emission, per manufacturer instructions, using a SpectraMax M2e spectrophotometer (Molecular Devices, LLC, Sunnyvale, Calif.). To optimize the PrestoBlue reduction time, RFUs were collected at 15 minute intervals for 4 hours using a reference antifungal. […] IC50 determination was calculated using GraphPad Prism version 7.01 for Windows (GraphPad Software, Inc., La Jolla, Calif.) from the RFUs at dilution points. Calculations were made with a nonlinear regression after transforming the molar concentrations of the aurones into the logarithmic form. Graphing was accomplished utilizing the same program following a four parameter curve fitting sigmoidal plot of the data. All aurones and controls were tested in triplicate and all testing was repeated in at least three independent experiments.

[6] = Trypanosoma brucei, Table 1, mean of 2(+) independent trials, read-out: IC50 T. brucei
[7] = Rattus norvegicus, Table 1, read-out: IC50 Toxicity (L6)
[8] = read-out: IC50 T. cruzi, Table 1, intracellular assay, mean of 2(+) trials (^c one trial)
[9] = read-out: IC50 T. cruzi, Table 2, intracellular assay, mean of 2(+) independent trials
[10] = Table 2, L6 IC50 / T. brucei IC50
[11] = Table 3B, estimated from highest L6 dose tested where no L6 IC50
[12] = Table 2, L6 IC50 / L. amazonensis IC50
[13] = Rattus norvegicus, Table 3B, weighted means of two or more independent trials, read-out: IC50 L6
[14] = Table 2, L6 mammalian cells, read-out: IC50 Toxicity (L6)
[15] = Table 1, intracellular T. cruzi IC50
[16] = Table 2, L6 IC50 / T. cruzi IC50 (intracellular assay)
[17] = read-out: IC50 TC-I, Table 3B, weighted means of two or more independent trials
[18] = Rattus norvegicus, Table 3A, weighted means of two or more independent trials, read-out: IC50 L6
[19] = read-out: IC50 TC-I, Table 3A, weighted means of two or more independent trials

Cc1ccc(/C=C2\Oc3ccccc3C2=O)cc1 [Aurone 8c, (Z)-2-(4-methylbenzylidene)benzofuran-3(2H)-one]
IC50 ([1]; Trypanosoma brucei, read-out: T. brucei IC50 dose): > 50 µM
melting point: 75 to 76 °C
activity against T. cruzi [2]: effective against T. cruzi only
IC50 ([2]; read-out: T. cruzi IC50 dose): < 10 µM

O=C1/C(=C/c2cccs2)Oc2c1ccc(O)c2O [Aurone 1001, (Z)-6,7-dihydroxy-2-(thiophen-2-ylmethylene)benzofuran-3(2H)-one]
IC50 [1, 6]: 25.3 µM
IC50 [3]: 22.9 µM
IC50 [4, 7]: 50.6 µM
melting point: 168 to 170 °C
IC50 [2, 8]: > 50 µM

O=C1/C(=C/c2cccs2)Oc2cc(O)ccc21 [Aurone 2901, (Z)-6-hydroxy-2-(thiophen-2-ylmethylene)benzofuran-3(2H)-one]
IC50 [1, 6]: > 50 µM
IC50 [3]: 19.4 µM
IC50 [4, 7]: > 100 µM
melting point: 300 to 303 °C
IC50 [2, 8]: > 50 µM

Cc1ccc(/C=C2\Oc3cc(O)ccc3C2=O)cc1 [Aurone 2904, (Z)-6-hydroxy-2-(4-methylbenzylidene)benzofuran-3(2H)-one]
IC50 [1, 6]: > 50 µM
IC50 [3]: 5.63 µM
IC50 [4, 7]: 70.3 µM
melting point: 258 to 264 °C
IC50 [2, 8]: > 50 µM
IC50 [2, 9]: > 50 µM

O=C1/C(=C/c2cc3ccccc3o2)Oc2ccccc21 [Aurone 3002, (Z)-2-(benzofuran-2-ylmethylene)benzofuran-3(2H)-one]
Selectivity L6/Tb ([1]; Table 1): >4.96
Selectivity L6/Tb [1, 10]: >4.96
Selectivity L6/Tb [1, 11]: >4.96
IC50 [1, 6]: 20.2 µM
IC50 [3]: 6.48 µM
Selectivity L6/La ([3]; Table 1): >15.43
Selectivity L6/La [3, 12]: >15.43
IC50 [4, 7]: > 100 µM
IC50 [4, 13]: > 100 µM
IC50 [4, 14]: > 100 µM
melting point: 145 to 150 °C
Selectivity L6/Tc [2, 15]: >15.53
Selectivity L6/Tc [2, 16]: >15.53
Selectivity L6/Tc-I [2]: >15.53
IC50 [2, 8]: 6.44 µM
IC50 [2, 9]: 6.44 µM
IC50 [2, 17]: 6.44 µM

O=C1/C(=C/c2cc(Br)ccc2Br)Oc2ccccc21 [Aurone 3003, (Z)-2-(2,5-dibromobenzylidene)benzofuran-3(2H)-one]
IC50 [1, 6]: > 50 µM
IC50 [3]: 16 µM
Selectivity L6/La ([3]; Table 1): >6.24
IC50 [4, 7]: > 100 µM
IC50 [4, 18]: > 100 µM
melting point: 181 to 182 °C
IC50 [2, 8]: > 50 µM
IC50 [2, 19]: > 50 µM

O=C1/C(=C/c2ccsc2)Oc2ccccc21 [Aurone 3004, (Z)-2-(thiophen-3-ylmethylene)benzofuran-3(2H)-one]
activity against T. brucei [1]: moderate activity
Selectivity L6/Tb ([1]; Table 1): >2.58
Selectivity L6/Tb [1, 10]: >2.58
Selectivity L6/Tb [1, 11]: >2.58
IC50 [1, 6]: 38.7 µM
IC50 [3]: 24.2 µM
Selectivity L6/La ([3]; Table 1): >4.13
Selectivity L6/La [3, 12]: >4.13
IC50 [4, 7]: > 100 µM
IC50 [4, 13]: > 100 µM
IC50 [4, 14]: > 100 µM
melting point: 125 to 126 °C
Selectivity L6/Tc [2, 15]: >11.09
Selectivity L6/Tc [2, 16]: >11.09
Selectivity L6/Tc-I [2]: >11.09
IC50 [2, 8]: 9.02 µM
IC50 [2, 9]: 9.02 µM
IC50 [2, 17]: 9.02 µM
IC50 ([2]; read-out: T. cruzi IC50 dose): 9.02 µM

O=C1/C(=C/c2ccoc2)Oc2ccccc21 [Aurone 3005, (Z)-2-(furan-3-ylmethylene)benzofuran-3(2H)-one]
Selectivity L6/Tb ([1]; Table 1): >2.39
Selectivity L6/Tb [1, 10]: >2.39
Selectivity L6/Tb [1, 11]: >2.39
IC50 [1, 6]: 41.9 µM
IC50 [3]: 42.7 µM
Selectivity L6/La ([3]; Table 1): >2.34
Selectivity L6/La [3, 12]: >2.34
IC50 [4, 7]: > 100 µM
IC50 [4, 13]: > 100 µM
IC50 [4, 14]: > 100 µM
melting point: 111 to 112 °C
Selectivity L6/Tc [2, 15]: >13.39
Selectivity L6/Tc [2, 16]: >13.39
Selectivity L6/Tc-I [2]: >13.39
IC50 [2, 8]: 7.47 µM
IC50 [2, 9]: 7.47 µM
IC50 [2, 17]: 7.47 µM

CC(=O)Nc1ccc(/C=C2\Oc3ccccc3C2=O)cc1 [Aurone 3006, (Z)-N-(4-((3-oxobenzofuran-2(3H)-ylidene)methyl)phenyl)acetamide]
IC50 [1, 6]: > 50 µM
IC50 [3]: 12.5 µM
Selectivity L6/La ([3]; Table 1): >7.99
IC50 [4, 7]: > 100 µM
IC50 ([4]; Rattus norvegicus, Table 3C, weighted means of two or more independent trials, read-out: IC50 L6): > 100 µM
melting point: 260 to 270 °C
IC50 [2, 8]: > 50 µM
IC50 ([2]; read-out: IC50 TC-I, Table 3C, intracellular T. cruzi, weighted means of two or more independent trials): > 50 µM

CC(C)(C)c1ccc(/C=C2\Oc3ccccc3C2=O)cc1 [Aurone 3008, (Z)-2-(4-(tert-butyl)benzylidene)benzofuran-3(2H)-one]
IC50 ([1]; Table 2, mean of 2(+) independent trials, read-out: IC50 T. brucei): > 50 µM
IC50 [1, 6]: > 50 µM
IC50 [3]: 3.57 µM
Selectivity L6/La ([3]; Table 1): 27.81
Selectivity L6/La [3, 12]: 27.81
IC50 [4, 7]: 99.3 µM
IC50 [4, 18]: 99.3 µM
melting point: 87 to 90 °C
Selectivity L6/TC-I [2]: 7.94
IC50 [2, 8]: > 50 µM
IC50 [2, 9]: > 50 µM
IC50 [2, 19]: 12.5 µM

COc1cc(OC)c2c(c1)O/C(=C\c1ccc(C)cc1)C2=O [Aurone 7000, (Z)-4,6 dimethoxy-2-(4-methylbenzalidene) benzofuran-3(2H)-one]
melting point: 145 to 148 °C

O=C1/C(=C/c2ccccc2I)Oc2ccccc21 [Aurone 9003, (Z)-2-(2-iodobenzylidene)benzofuran-3(2H)-one]
IC50 [1, 6]: > 50 µM
IC50 [4, 7]: > 100 µM
IC50 [4, 18]: > 100 µM
melting point: 145 to 148 °C
Selectivity L6/Tc [2, 15]: >6.50
Selectivity L6/TC-I [2]: >6.50
IC50 [2, 8]: 15.4 µM
IC50 [2, 19]: 15.4 µM

COc1cccc(/C=C2\Oc3ccccc3C2=O)c1O [Aurone 9055, (Z)-2-(2-hydroxy-3-methoxybenzylidene)benzofuran-3(2H)-one]
IC50 [1, 6]: > 50 µM
IC50 [3]: 18.5 µM
IC50 [4, 7]: > 100 µM
inhibition at 100 µM [5]: 16.7 ± 0.2%
IC50 [2, 8]: > 50 µM
